Measurements as given in patent US20140161891A1, “COMPOSITION OF PI3K INHIBITOR AND USE THEREOF” (priority 2012, published 2014).

Experiments:
[1] = tested on: H157 (PI3KCA, PTEN null) lung cancer cell strain; experiment: MTT cell activity test; assay type: cell-based; details: H157, higher dosage, 48 hours
Excerpt: To measure the ionized LY, PLAG nanoparticles (SF-NPs), and SF-LY NPs, PLGA NPs are applied to four selected types of lung cancer cell strains including AS2 (PTEN null), H157 (PI3KCA, PTEN null), H460 (PI3KCA) and H1650 (PTEN null) in this preferred embodiment, and different concentrations are used to process the ionized LY or SF-LY NPs and a MTT testing method is used to measure the cell activity, and the experiment procedure is described in details as follows: The cells are inoculated in 96-hole culture boards (each hole has 5×10^3 cells) and cultured by 5% of CO2 at 37[…] till the next day. In four types of different cells, different doses of SF NPs, LY or SF-LY NPs are added and processed for 48 hours, and then a stock solution (with a content of 5 mg/ml in PBS) of a MTT agent at 37° C. is added to the 96-hole culture boards containing different processing drugs and wait for 4 fours before centrifuging the culture boards at 1200 rpm for 5 minutes, and after adding DMSO (capable of dissolving and precipitating products produced by the reaction of MTT and cells) for 5 minutes, the suspension is moved to a new ELISA board, and an ELISA reader (Varioskan, Thermo Electron) is used to measure the light absorption by 490 nm.

[2] = tested on: four types of lung cancer cell strains (AS2, H157, H460, H1650); experiment: MTT cell activity test, four cell strains together; assay type: cell-based; details: 48 hours
Excerpt: To measure the ionized LY, PLAG nanoparticles (SF-NPs), and SF-LY NPs, PLGA NPs are applied to four selected types of lung cancer cell strains including AS2 (PTEN null), H157 (PI3KCA, PTEN null), H460 (PI3KCA) and H1650 (PTEN null) in this preferred embodiment, and different concentrations are used to process the ionized LY or SF-LY NPs and a MTT testing method is used to measure the cell activity, and the experiment procedure is described in details as follows:
The cells are inoculated in 96-hole culture boards (each hole has 5×10^3 cells) and cultured by 5% of CO2 at 37[…] till the next day. In four types of different cells, different doses of SF NPs, LY or SF-LY NPs are added and processed for 48 hours, and then a stock solution (with a content of 5 mg/ml in PBS) of a MTT agent at 37° C. is added to the 96-hole culture boards containing different processing drugs and wait for 4 fours before centrifuging the culture boards at 1200 rpm for 5 minutes, and after adding DMSO (capable of dissolving and precipitating products produced by the reaction of MTT and cells) for 5 minutes, the suspension is moved to a new ELISA board, and an ELISA reader (Varioskan, Thermo Electron) is used to measure the light absorption by 490 nm. […]

PC14PE6/AS2 cells tumor = experiment: AS2 tumor model in nude mice, injection in the tumor; assay type: in vivo, Balb/c female nude mice; details: 1 mg/kg, injected in the tumor three times a week for two weeks
Description: Balb/c female nude mice were obtained from National Laboratory Animal Center, Taiwan. Mice of 6˜8 weeks old are used. The mice are randomly divided into four groups, and situated in the same environment with controlled tempeature, humidity and 12 h-light/dark cycle, and the controlled environmental conditions follows the environmental conditions for animal breeding set forth by National Cheng Kung University. The balb/c immunodeficient mice are innoculated with PC14PE6/AS2 cells (1×10^6 cells/1004 of PBS) by the subcutaneous inoculation method. If the tumor size is approximately equal to 50-60 cubic millimeters, the experiment starts taking place. […] The tumor size is measured by a caliper and a standard tumor volume measurement method (Volume=Long Axis×Short Axis^2×0.5). […]
After the procedure as shown in FIG. 5 takes place, the body weight of the mice is measured in every two other days to check whether there is a loss of weight. […] The survival rate is determined by the number of days when a natural death of each group of mice occurs or the tumor reaches a size of 4000 mm^3.

For `O=c1cc(N2CCOCC2)oc2c(-c3ccccc3)cccc12` [LY294002, 2-(4-Morpholinyl)-8-phenyl-4H-1-benzopyran-4-one], the “toxicity to H157 cells” value [1] was “slight toxicity”, the “toxicity of the cells” value [2] was “slight toxicity” and the growth of tumors (PC14PE6/AS2 cells tumor) was “insufficient to reduce the growth of tumors”. For the same molecule, the “tumor size increase relative to start” value (PC14PE6/AS2 cells tumor; after 12˜14 days) was “approximately 40 times”.
